The test system of assay [1] is HCMV recombinant mutant virus whose genome contains the prokaryotic beta-glucuronidase gene. In words: microbe, parasite or virus in culture. The class given is cell-based, human cytomegalovirus. To be noted: Human betaherpesvirus 5, Fibroblast, read-out: IC50 ug/ml HCMV, HCMV, human foreskin fibroblasts. Summed up: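 Antiviral IC50 estimated from reduced reporter activity across compound amounts: lysates prepared 96 h after infection were tested with p-nitrophenyl- or methylumbelliferyl-glucuronide. Cells were human foreskin fibroblasts, infected alongside inhibitor with HCMV (e.g. RV145) expressing viral promoter-driven beta-glucuronidase.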

The subject of another assay is HSV- I. In words: HSV antiviral (ELISA) assay. The assay is classed as cell-based. To be noted: HSV- I, Vero cells, ELISA; read-out: IC50 (ug/ml) HSV. Summed up:
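IC50 from fluorescence versus untreated control in a cell ELISA: anti-glycoprotein D antibody, β-galactosidase-conjugated secondary, 4-methyl umbelliferone read at 365/450 nm. Vero cells (2% FBS DMEM) received compound 30 min pre-infection with HSV-1 at MOI 0.006, fixed ~24 h post-infection.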
Background: An ELISA detects its analyte on a solid surface through an enzyme-linked reagent.

The test system of the next assay is VZV strain Ellen. In words: VZV antiviral (ELISA) assay. The class given is cell-based. To be noted: Human alphaherpesvirus 3, HFF; for inhibition at 10 µg/mL: read-out: % inhibition 10 ug/ml VZV; for IC50: read-out: IC50 (ug/ml) VZV. The essentials:
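HFF cells infected with VZV Ellen at multiplicity below 0.1 overnight, then mixed infected/uninfected cells seeded with compound in DMEM/2% FBS and incubated three days at 37°C, 5% CO2.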

≈ marks a conversion by molar mass, not a printed value.

For `CN1CCC(N(C)c2ccc(NC(=S)Nc3ccc(NC(=O)c4ccccc4F)cc3)cc2Cl)C1` (stereo not drawn) [Example 332, N-[4-(3-{3-Chloro-4-[methyl-(1-methyl-pyrrolidin-3-yl)-amino]-phenyl}-thioureido)-phenyl]-2-fluoro-benzamide], the IC50 in assay [1] came out at 0.9 µg/mL (≈ 1.76 µM); with HSV- I it was 1 µg/mL (≈ 1.95 µM); in the assay with VZV strain Ellen, 8 µg/mL (≈ 15.6 µM). Besides, in the assay on VZV strain Ellen, the inhibition at 10 µg/mL was found to be 90%.
For the molecule `COc1cc(C)c(Cl)cc1NC(=S)Nc1ccc(NC(=O)c2c(F)cccc2F)cc1` [Example 333, N-{4-[3-(5-Chloro-2-methoxy-4-methyl-phenyl)-thioureido]-phenyl}-2,6-difluoro-benzamide], the IC50 in assay [1] worked out at 2.5 µg/mL (≈ 5.41 µM); with HSV- I, 0.04 µg/mL (≈ 0.0866 µM); in the assay with VZV strain Ellen it was 4.5 µg/mL (≈ 9.74 µM). Besides, the inhibition at 10 µg/mL in the assay with VZV strain Ellen is 92%.
Consider `CN1CCC(N(C)c2ccc(NC(=S)Nc3ccc(NC(=O)c4c(F)cccc4F)cc3)cc2Cl)CC1` [Example 340, N-[4-(3-{3-Chloro-4-[methyl-(1-methyl-piperidin-4-yl)-amino]-phenyl}-thioureido)-phenyl]-2,6-difluoro-benzamide], for which the IC50 stood at 0.25 µg/mL (≈ 0.459 µM) in assay [1], 3 µg/mL (≈ 5.51 µM) in the assay with HSV- I and 4 µg/mL (≈ 7.35 µM) with VZV strain Ellen. The inhibition at 10 µg/mL in the assay with VZV strain Ellen amounted to 99%.
`CSc1ccc(NC(=S)Nc2ccc(NC(=O)c3ccccc3C)cc2)cc1Cl` [Example 342, N-{4-[3-(3-Chloro-4-methylsulfanyl-phenyl)-thioureido]-phenyl}-2-methyl-benzamide]: the IC50 was 1.4 µg/mL (≈ 3.17 µM) in assay [1], 0.2 µg/mL (≈ 0.452 µM) with HSV- I and > 10 µg/mL in the assay on VZV strain Ellen. For the same molecule, the inhibition at 10 µg/mL in the assay with VZV strain Ellen turned out to be 62%.
Consider `Cc1ccccc1C(=O)Nc1ccc(NC(=S)Nc2ccc(N(C)C)c(Cl)c2)cc1` [Example 346, N-{4-[3-(3-Chloro-4-dimethylamino-phenyl)-thioureido]-phenyl}-2-methyl-benzamide], for which the IC50 in assay [1] was 2 µg/mL (≈ 4.56 µM); with HSV- I, 6 µg/mL (≈ 13.7 µM); in the assay on VZV strain Ellen, > 10 µg/mL. Besides, in the assay on VZV strain Ellen, the inhibition at 10 µg/mL turned out to be 62%.
Regarding `CN(C)c1ccc(NC(=S)Nc2ccc(NC(=O)c3c(F)cccc3F)cc2)cc1Cl` [Example 348, N-{4-[3-(3-Chloro-4-dimethylamino-phenyl)-thioureido]-phenyl}-2,6-difluoro-benzamide], the results for the IC50 (in assay [1]; in the assay with HSV- I; in the assay on VZV strain Ellen) were 0.8 µg/mL (≈ 1.74 µM), 4 µg/mL (≈ 8.68 µM) and 8 µg/mL (≈ 17.4 µM), respectively. Besides, the inhibition at 10 µg/mL in the assay with VZV strain Ellen came out at 95%.
Turning to `CN1CCC(N(C)c2ccc(NC(=S)Nc3ccc(NC(=O)c4c(F)cccc4F)cc3)cc2Cl)C1` (stereo not drawn) [Example 349, N-[4-(3-{3-Chloro-4-[methyl-(1-methyl-pyrrolidin-3-yl)-amino]-phenyl}-thioureido)-phenyl]-2,6-difluoro-benzamide], the IC50 in assay [1] is 1.2 µg/mL (≈ 2.26 µM); in the assay on HSV- I it was 5 µg/mL (≈ 9.43 µM); in the assay on VZV strain Ellen, 4 µg/mL (≈ 7.55 µM). Besides, the inhibition at 10 µg/mL with VZV strain Ellen was found to be 110%.
As for `COc1cc(OC)c(NC(=S)Nc2ccc(NC(=O)c3ccccc3F)cc2Cl)cc1Cl` [Example 355, N-{3-Chloro-4-[3-(5-chloro-2,4-dimethoxy-phenyl)-thioureido]-phenyl}-2-fluoro-benzamide], the IC50 in assay [1] was > 10 µg/mL; in the assay on HSV- I, 0.035 µg/mL (≈ 0.0708 µM); in the assay with VZV strain Ellen, > 10 µg/mL. In addition, the inhibition at 10 µg/mL in the assay with VZV strain Ellen is 40%.
For the molecule `O=C(Nc1ccc(NC(=S)Nc2ccc(SC3CCCCC3)c(Cl)c2)cc1)c1ccccc1F` [Example 357, N-{4-[3-(3-Chloro-4-cyclohexylsulfanyl-phenyl)-thioureido]-phenyl}-2-fluoro-benzamide], the IC50 in assay [1] is 9 µg/mL (≈ 17.5 µM); with HSV- I, > 10 µg/mL; in the assay on VZV strain Ellen it was 40 µg/mL (≈ 77.8 µM). Further, the inhibition at 10 µg/mL in the assay on VZV strain Ellen was determined as 44%.
In the case of `CN(C)CC(=O)Nc1ccc(NC(=S)Nc2ccc(NC(=O)c3ccccc3F)cc2)cc1Cl` [Example 362, N-(4-{3-[3-Chloro-4-(2-dimethylamino-acetylamino)-phenyl]-thioureido}-phenyl)-2-fluoro-benzamide], the IC50 (in assay [1]; in the assay with HSV- I; with VZV strain Ellen) was > 10 µg/mL throughout. Besides, in the assay on VZV strain Ellen, the inhibition at 10 µg/mL was found to be 8%.
Take `O=C(CN1CCCCC1)Nc1ccc(NC(=S)Nc2ccc(NC(=O)c3ccccc3F)cc2)cc1Cl` [Example 364, N-(4-{3-[3-Chloro-4-(2-piperidin-1-yl-acetylamino)-phenyl]-thioureido}-phenyl)-2-fluoro-benzamide]: the IC50 in assay [1] is > 10 µg/mL; with HSV- I, > 10 µg/mL; in the assay on VZV strain Ellen, > 15 µg/mL. The inhibition at 10 µg/mL in the assay on VZV strain Ellen was found to be 73%.
Turning to `O=C(CN1CCOCC1)Nc1ccc(NC(=S)Nc2ccc(NC(=O)c3ccccc3F)cc2)cc1Cl` [Example 367, N-(4-{3-[3-Chloro-4-(2-morpholin-4-yl-acetylamino)-phenyl]-thioureido}-phenyl)-2-fluoro-benzamide], the IC50 (in assay [1]; with HSV- I; in the assay with VZV strain Ellen) was > 10 µg/mL in each case. In the assay with VZV strain Ellen, the inhibition at 10 µg/mL is 20%.
On to `CS(=O)(=O)Nc1ccc(NC(=S)Nc2ccc(NC(=O)c3ccccc3F)cc2)cc1Cl` [Example 370, N-{4-[3-(3-Chloro-4-methanesulfonylamino-phenyl)-thioureido]-phenyl}-2-fluoro-benzamide], for which the IC50 (in assay [1]; in the assay with HSV- I; in the assay on VZV strain Ellen) was > 10 µg/mL in each case. Moreover, the inhibition at 10 µg/mL in the assay with VZV strain Ellen is 16%.
For the molecule `CN(C)CCSCC(=O)Nc1ccc(NC(=S)Nc2ccc(NC(=O)c3ccccc3F)cc2)cc1Cl` [Example 373, N-[4-(3-{3-Chloro-4-[2-(2-dimethylamino-ethylsulfanyl)-acetylamino]-phenyl}-thioureido)-phenyl]-2-fluoro-benzamide], the figures for the IC50 (in assay [1]; in the assay on HSV- I; in the assay with VZV strain Ellen) were 6 µg/mL (≈ 10.7 µM), 9 µg/mL (≈ 16.1 µM) and > 10 µg/mL, respectively. Moreover, in the assay on VZV strain Ellen, the inhibition at 10 µg/mL stood at 4%.
For `Cc1ccccc1C(=O)Nc1ccc(NC(=S)Nc2ccc(N(C)C3CCN(Cc4ccccc4)C3)c(Cl)c2)cc1` (stereo not drawn) [Example 374, N-[4-(3-{4-[(1-Benzyl-pyrrolidin-3-yl)-methyl-amino]-3-chloro-phenyl}-thioureido)-phenyl]-2-methyl-benzamide], the IC50 in assay [1] turned out to be 3 µg/mL (≈ 5.14 µM); with HSV- I, 3 µg/mL (≈ 5.14 µM); with VZV strain Ellen it was 4 µg/mL (≈ 6.85 µM). In the assay with VZV strain Ellen, the inhibition at 10 µg/mL came out at 70%.
In the case of `Cc1ccccc1C(=O)Nc1ccc(NC(=S)Nc2ccc(N(C)C3CCN(C)CC3)c(Cl)c2)cc1` [Example 375, N-[4-(3-{3-Chloro-4-[methyl-(1-methyl-piperidin-4-yl)-amino]-phenyl}-thioureido)-phenyl]-2-methyl-benzamide], the IC50 in assay [1] turned out to be 1.5 µg/mL (≈ 2.87 µM); in the assay on HSV- I it was 5 µg/mL (≈ 9.58 µM); in the assay on VZV strain Ellen, 7 µg/mL (≈ 13.4 µM). Besides, the inhibition at 10 µg/mL with VZV strain Ellen was found to be 95%.
Take `O=C(Nc1ccc(NC(=S)Nc2ccc(Cl)c(C(F)(F)F)c2)cc1)c1c(F)cccc1F` [Example 380, N-{4-[3-(4-Chloro-3-trifluoromethyl-phenyl)-thioureido]-phenyl}-2,6-difluoro-benzamide]: the IC50 (in assay [1]; in the assay on HSV- I; in the assay with VZV strain Ellen) was > 10 µg/mL throughout. Further, in the assay on VZV strain Ellen, the inhibition at 10 µg/mL came to 50%.
Regarding `CCSc1ccc(NC(=S)Nc2ccc(NC(=O)c3ccccc3F)cc2)cc1Cl` [Example 386, N-{4-[3-(3-Chloro-4-ethylsulfanyl-phenyl)-thioureido]-phenyl}-2-fluoro-benzamide], the IC50 was 2 µg/mL (≈ 4.35 µM) in assay [1], > 10 µg/mL in the assay with HSV- I and > 10 µg/mL in the assay on VZV strain Ellen. Moreover, the inhibition at 10 µg/mL in the assay on VZV strain Ellen was 29%.

The values above are taken from patent publication EP1137645B1, “ALPHA-METHYLBENZYL-CONTAINING THIOUREA INHIBITORS OF HERPES VIRUSES CONTAINING A […] GROUP” (Wyeth, priority 1998, dated 2000).
